Source: patent publication US12408664B2 (priority 2018, dated 2025)
Read-outs that look alike come from different tables or passages of the source.

Experiments:
S. homoeocarpa [1] = experiment: Plug transfer to PDA plates without calcium propionate (fungistatic or fungicidal); type: cell-based, Scerotinia homoeocarpa
R. solani = experiment: as above; type: cell-based, Rhizoctonia solani
M. poae [2] = type: cell-based, Magnaporthe poae
G. graminis [3] = experiment: Zone of inhibition assay on PDA plates; type: cell-based, Gaeumannomyces graminis
Method: To test the efficacy of calcium propionate (CaP) against the four microbes listed above, zone of inhibition assays were performed. Wells were bored in potato dextrose agarose (PDA) plates then amended with […] calcium propionate at concentrations of 0.1%, 0.2%, 0.3%, 0.4%, and 0.5% (w/v). Control plates were amended with […] dH2O. Plates were inoculated using plugs from active cultures. Growth patterns were observed over seven days. Representative results with M. poae are shown at three days following inoculation (FIG. 1A) and seven days following inoculation (FIG. 1B).
The zone of inhibition assays described in Example 1 were performed using calcium propionate doses of 0.5%, 1%, 2%, 3%, and 4% (w/v). Growth diameter was recorded at 2, 5, and 7 days post inoculation. The data shown in Table 1 represent the average±standard deviation (SD) of two replicate plates for each strain tested.
Zone of inhibition assays using PDA plates amended with 5-12% (w/v) calcium propionate were performed as described above. As a control, plates were amended with a composition comprising propiconazole, a commonly used fungicidal treatment for microbe infection of turfgrass, sold under the trademark Banner MaxxII®. Growth diameter was recorded for 13 days post inoculation. The data shown in Table 2 represent the average±standard deviation (SD) of three replicate plates for each strain tested. Inoculants of S. homoeocarpa, M. poae, and R. solani generally grow to luxuriant culture, covering the entire surface of the plate (8.5 cm growth) in 7 days.

M. poae [4] = type: cell-based, Magnaporthe poae; conditions: MEB with 1%, 2%, 5% or 10% (w/v) calcium propionate; five days
G. graminis [5] = experiment: Plug transfer to PDA plates without calcium propionate (fungistatic or fungicidal); type: cell-based, Gaeumannomyces graminis
S. homoeocarpa [6] = experiment: New inoculants in MEB liquid culture amended with calcium propionate; type: cell-based, Scerotinia homoeocarpa; conditions: MEB with 1, 2, 5 and 10% (w/v) calcium propionate; five days
Method: To examine the effective dose range in liquid culture, malt extract broth (MEB) was prepared and amended with calcium propionate at concentrations of 1, 2, 5 and 10% (w/v). Unamended MEB was used as a control for growth. Each of the four microbes identified in Example 1 was tested twice by inoculating MEB using agarose plugs from luxuriant cultures. Growth was observed over five days. In each microbe examined, visible growth in liquid culture was apparent by day 2 following inoculation with well-established growth by 4 days in the absence of calcium propionate.

S. homoeocarpa [7] = experiment: Growth on PDA with calcium propionate fully integrated into the agarose; type: cell-based, Scerotinia homoeocarpa; conditions: for Growth, S. homeocarpa: single plate
Method: In contrast to the zone of inhibition assays described in Examples 1-3, for this experiment, PDA with calcium propionate fully integrated into the agarose was prepared. Thus, inoculants were grown on plates in which calcium propionate was incorporated at a uniform concentration throughout the plate, rather than the zones of concentration established by simple diffusion in the zone of inhibition assays. The PDA plates were amended with 5, 7.5, 10, or 12% (w/v) calcium propionate. Growth diameter was recorded for 15 days post inoculation. The data shown in Table 3 represent the results of single plate tests.

S. homoeocarpa [8] = experiment: Disrupted well-established culture transferred to amended MEB; type: cell-based, Scerotinia homoeocarpa; conditions: MEB with 1%, 2%, 5% or 10% (w/v) calcium propionate; five days
Source text: To examine the effect of calcium propionate on well-established cultures of S. homoeocarpa and M. poae, MEB was inoculated with agarose plugs as previously described. Cultures were allowed to grow for 10 days to establish a robust hyphal mat. After 10 days, hyphal mats were disrupted by pipetting to break up mycelium (disrupted culture). One milliliter of disrupted culture was transferred to MEB amended with 1%, 2%, 5%, or 10% (w/v) calcium propionate. MEB without calcium propionate was used as a control. Cultures were allowed to grow for five days following inoculation with disrupted mycelium.

G. graminis [9] = experiment: Established liquid cultures, two days calcium propionate then washout; type: cell-based, Gaeumannomyces graminis
Method: To further examine the impact of calcium propionate on established liquid cultures, MEB was inoculated by plug transfer and cultures were allowed to grow for one to six days. Following this, calcium propionate was added to active cultures to a final concentration of 1%, 2%, or 5% (w/v); control cultures had no calcium propionate. Calcium propionate was then added to established one to six day old cultures and cultures were allowed to grow in the presence of calcium propionate for two days, after which, calcium propionate was washed out and cultures were returned to MEB only. Growth following calcium propionate washout was recorded over 14 days.

[10] = plugs initially grown on 5, 7.5, 10 or 12% (w/v) calcium propionate, observed 14 days
[11] = any of the concentrations tested (5, 7.5, 10, 12% w/v), 15 days

SMILES: CCC(=O)[O-].CCC(=O)[O-].[Ca+2] [calcium propionate]
- fungistatic or fungicidal effect, S. homoeocarpa (S. homoeocarpa [1]; 5% (w/v) calcium propionate): fungicidal effect
- growth on unamended PDA after plug transfer, S. homoeocarpa (S. homoeocarpa [1]; [10]): No growth was seen
- concentration required to achieve a fungicidal effect on R. solani (R. solani): 10-12 % (w/v)
- fungistatic or fungicidal effect, R. solani (R. solani; 5% (w/v) calcium propionate): fungistatic rather than fungicidal
- growth on unamended PDA after plug transfer, R. solani (R. solani; plugs from 5% and 7.5% (w/v) calcium propionate plates, 6-7 days following transfer): luxuriant growth
- growth on unamended PDA after plug transfer, R. solani (R. solani; plugs from 10% and 12% (w/v) calcium propionate plates): did not grow
- Growth, M. Poae (M. poae [2]; PDA with 5% (w/v) calcium propionate, day 4, single plate): 0 cm
- Growth, M. Poae (M. poae [2]; PDA with 5% (w/v) calcium propionate, day 5, single plate): 0 cm
- Growth, M. Poae (M. poae [2]; PDA with 5% (w/v) calcium propionate, day 8, single plate): 0 cm
- Growth, M. Poae (M. poae [2]; PDA with 5% (w/v) calcium propionate, day 11, single plate): 0 cm
- Growth, M. Poae (M. poae [2]; PDA with 5% (w/v) calcium propionate, day 15, single plate): 0 cm
- Growth, M. Poae (M. poae [2]; PDA with 7.5% (w/v) calcium propionate, day 4, single plate): 0 cm
- Growth, M. Poae (M. poae [2]; PDA with 7.5% (w/v) calcium propionate, day 5, single plate): 0 cm
- Growth, M. Poae (M. poae [2]; PDA with 7.5% (w/v) calcium propionate, day 8, single plate): 0 cm
- Growth, M. Poae (M. poae [2]; PDA with 7.5% (w/v) calcium propionate, day 11, single plate): 0 cm
- Growth, M. Poae (M. poae [2]; PDA with 7.5% (w/v) calcium propionate, day 15, single plate): 0 cm
- Growth, M. Poae (M. poae [2]; PDA with 10% (w/v) calcium propionate, day 4, single plate): 0 cm
- Growth, M. Poae (M. poae [2]; PDA with 10% (w/v) calcium propionate, day 5, single plate): 0 cm
- Growth, M. Poae (M. poae [2]; PDA with 10% (w/v) calcium propionate, day 8, single plate): 0 cm
- Growth, M. Poae (M. poae [2]; PDA with 10% (w/v) calcium propionate, day 11, single plate): 0 cm
- Growth, M. Poae (M. poae [2]; PDA with 10% (w/v) calcium propionate, day 15, single plate): 0 cm
- Growth, M. Poae (M. poae [2]; PDA with 12% (w/v) calcium propionate, day 4, single plate): 0 cm
- Growth, M. Poae (M. poae [2]; PDA with 12% (w/v) calcium propionate, day 5, single plate): 0 cm
- Growth, M. Poae (M. poae [2]; PDA with 12% (w/v) calcium propionate, day 8, single plate): 0 cm
- Growth, M. Poae (M. poae [2]; PDA with 12% (w/v) calcium propionate, day 11, single plate): 0 cm
- Growth, M. Poae (M. poae [2]; PDA with 12% (w/v) calcium propionate, day 15, single plate): 0 cm
- Growth, M. Poae (M. poae [2]; [11]): no growth
- Growth, G. graminis (G. graminis [3]; 5-12% (w/v) calcium propionate, day 2, average ± SD of three plates): 1.2 ± 0.3 cm
- Growth, G. graminis (G. graminis [3]; 5-12% (w/v) calcium propionate, day 3, average ± SD of three plates): 2.2 ± 0.3 cm
- Growth, G. graminis (G. graminis [3]; 5-12% (w/v) calcium propionate, day 6, average ± SD of three plates): 2.7 ± 0.3 cm
- Growth, G. graminis (G. graminis [3]; 5-12% (w/v) calcium propionate, day 7, average ± SD of three plates): 4.0±0.6 cm
- Growth, G. graminis (G. graminis [3]; 5-12% (w/v) calcium propionate, day 10, average ± SD of three plates): 5.9 ± 0.5 cm
- Growth, G. graminis (G. graminis [3]; 5-12% (w/v) calcium propionate, day 13, average ± SD of three plates): 8.3 ± 0.3 cm
- growth inhibition, G. graminis (G. graminis [3]; wells 0.1-0.5% (w/v) calcium propionate, observed over seven days): no growth inhibition was observed
- growth inhibition, G. graminis (G. graminis [3]; wells 0.5-4% (w/v) calcium propionate, 2 and 5 days post inoculation): growth inhibition
- growth difference versus control plates, G. graminis (G. graminis [3]; wells 0.5-4% (w/v) calcium propionate, 7 days post inoculation): no growth difference was observed
- Growth, G. graminis (G. graminis [3]; wells 0.5-4% (w/v) calcium propionate, day 2, average ± SD of two plates): 1.6 ± 0.1 cm
- Growth, G. graminis (G. graminis [3]; wells 0.5-4% (w/v) calcium propionate, day 5, average ± SD of two plates): 4.7 ± 0.2 cm
- Growth, G. graminis (G. graminis [3]; wells 0.5-4% (w/v) calcium propionate, day 7, average ± SD of two plates): 7 ± 0.1 cm
- growth of disrupted culture, M. poae (M. poae [4]): No growth was observed
- fungistatic or fungicidal effect, G. graminis (G. graminis [5]; 5% (w/v) calcium propionate): fungicidal effect
- growth on unamended PDA after plug transfer, G. graminis (G. graminis [5]; [10]): No growth was seen
- growth in liquid culture, S. homoeocarpa (S. homoeocarpa [6]): no growth was observed
- Growth, S. homeocarpa (S. homoeocarpa [7]; PDA with 5% (w/v) calcium propionate, day 4): 0 cm
- Growth, S. homeocarpa (S. homoeocarpa [7]; PDA with 5% (w/v) calcium propionate, day 5): 0 cm
- Growth, S. homeocarpa (S. homoeocarpa [7]; PDA with 5% (w/v) calcium propionate, day 8): 0 cm
- Growth, S. homeocarpa (S. homoeocarpa [7]; PDA with 5% (w/v) calcium propionate, day 11): 0 cm
- Growth, S. homeocarpa (S. homoeocarpa [7]; PDA with 5% (w/v) calcium propionate, day 15): 0 cm
- Growth, S. homeocarpa (S. homoeocarpa [7]; PDA with 7.5% (w/v) calcium propionate, day 4): 0 cm
- Growth, S. homeocarpa (S. homoeocarpa [7]; PDA with 7.5% (w/v) calcium propionate, day 5): 0 cm
- Growth, S. homeocarpa (S. homoeocarpa [7]; PDA with 7.5% (w/v) calcium propionate, day 8): 0 cm
- Growth, S. homeocarpa (S. homoeocarpa [7]; PDA with 7.5% (w/v) calcium propionate, day 11): 0 cm
- Growth, S. homeocarpa (S. homoeocarpa [7]; PDA with 7.5% (w/v) calcium propionate, day 15): 0 cm
- Growth, S. homeocarpa (S. homoeocarpa [7]; PDA with 10% (w/v) calcium propionate, day 4): 0 cm
- Growth, S. homeocarpa (S. homoeocarpa [7]; PDA with 10% (w/v) calcium propionate, day 5): 0 cm
- Growth, S. homeocarpa (S. homoeocarpa [7]; PDA with 10% (w/v) calcium propionate, day 8): 0 cm
- Growth, S. homeocarpa (S. homoeocarpa [7]; PDA with 10% (w/v) calcium propionate, day 11): 0 cm
- Growth, S. homeocarpa (S. homoeocarpa [7]; PDA with 10% (w/v) calcium propionate, day 15): 0 cm
- Growth, S. homeocarpa (S. homoeocarpa [7]; PDA with 12% (w/v) calcium propionate, day 4): 0 cm
- Growth, S. homeocarpa (S. homoeocarpa [7]; PDA with 12% (w/v) calcium propionate, day 5): 0 cm
- Growth, S. homeocarpa (S. homoeocarpa [7]; PDA with 12% (w/v) calcium propionate, day 8): 0 cm
- Growth, S. homeocarpa (S. homoeocarpa [7]; PDA with 12% (w/v) calcium propionate, day 11): 0 cm
- Growth, S. homeocarpa (S. homoeocarpa [7]; PDA with 12% (w/v) calcium propionate, day 15): 0 cm
- growth, S. homoeocarpa (S. homoeocarpa [7]; [11]): no growth
- growth of disrupted culture, S. homoeocarpa (S. homoeocarpa [8]): No growth was observed
- growth while calcium propionate was present, G. graminis (G. graminis [9]; 1%, 2% or 5% (w/v), established one to six day old cultures, two days): growth was inhibited
- growth three days following removal of calcium propionate, G. graminis (G. graminis [9]; all concentrations tested (1-5% w/v), data not shown): continued growth inhibition
- growth up to two weeks following calcium propionate removal, G. graminis (G. graminis [9]; concentrations as low as 1% (w/v)): no growth was observed
